Drawing on the Kinase Knowledgebase extract (Sharma et al. 2016), this text covers inhibition and IC50 for 11 compounds.

Bounds are passed on as bounds.

The inhibition is the share of the control response that was lost under treatment. The IC50 is the concentration at which inhibition is half-maximal. A lower IC50 goes with greater potency.

Chain of MAPK14 (Q16539 whole entry, looked up): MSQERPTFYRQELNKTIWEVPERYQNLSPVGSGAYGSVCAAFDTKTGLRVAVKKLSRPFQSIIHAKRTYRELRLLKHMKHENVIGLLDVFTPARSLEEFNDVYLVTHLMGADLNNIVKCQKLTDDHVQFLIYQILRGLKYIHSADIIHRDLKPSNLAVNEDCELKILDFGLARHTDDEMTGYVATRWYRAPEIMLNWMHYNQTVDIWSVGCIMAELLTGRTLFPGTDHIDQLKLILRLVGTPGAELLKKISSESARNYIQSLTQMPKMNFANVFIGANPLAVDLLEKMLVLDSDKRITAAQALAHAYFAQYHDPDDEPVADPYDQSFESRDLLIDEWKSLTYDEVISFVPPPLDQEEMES

In the first assay the test system is MAPK14 (Balb/c mice). Nature of the assay: Animal Model. As to conditions: dose or concentration not given here.
`Cc1nc(COc2ccc(C(=O)Nc3cc(NC(=O)c4cc(F)cc(N5CCOCC5)c4)ccc3C)cc2)cs1` gave an inhibition of 0%.

A further assay has as its target MAPK14 (UniProt Q16539). Nature of the assay: Inhibition of MAPK14 Kinase Activity.
Details: not given
`Cc1ccc(NC(=O)c2cc(F)cc(N3CCOCC3)c2)cc1NC(=O)c1ccc(OCc2ccccn2)cc1` had an IC50 of 64 nM.

Compound `Cc1ccc(NC(=O)c2cc(F)cc(N3CCOCC3)c2)cc1NC(=O)c1ccc(OCc2cscn2)cc1` showed an IC50 of 16 nM. On the same count and under the same terms, for `Cc1ccc(NC(=O)c2cccc(N3CCOCC3)c2)cc1NC(=O)c1ccc(OCc2ccccc2)cc1` the value was 37 nM; for `Cc1ccc(NC(=O)c2cccc(N3CCOCC3)c2)cc1NC(=O)c1ccc(OCc2ccncc2)cc1`, 22 nM. Still for that read-out and setting: the figure for `Cc1ccc(NC(=O)c2cc(F)cc(N3CCOCC3)c2)cc1NC(=O)c1ccc(OCc2ccncc2)cc1` is 17 nM. Compound `Cc1nc(COc2ccc(C(=O)Nc3cc(NC(=O)c4cccc(N5CCOCC5)c4)ccc3C)cc2)cs1` registered an IC50 of 28 nM. The same measure, in the same setting: for `Cc1ccc(NC(=O)c2cccc(N3CCOCC3)c2)cc1NC(=O)c1ccc(OCc2cccnc2)cc1` the value was 95 nM; for `Cc1nc(COc2ccc(C(=O)Nc3cc(NC(=O)c4cc(F)cc(N5CCOCC5)c4)ccc3C)cc2)cs1`, 97 nM.

The target of the next assay is MAPK14 (human) (UniProt Q16539). Nature of the assay: Inhibition of LPS Induced TNF-alpha Release in Human PBMC.
Chain of MAPK14 (human) (Q16539 whole entry, looked up): as above
Details: not given
Compound `COc1ccc(C(=O)Nc2cc(NC(=O)c3cccc(N(C)C)c3)ccc2C)cc1` yielded an IC50 above 50000 nM. Still for that read-out and setting: the figure for `Cc1ccc(NC(=O)c2cccc(N(C)C)c2)cc1NC(=O)c1ccc(O)cc1` is above 50000 nM; for `COc1ccc(C(=O)Nc2cc(NC(=O)c3cccc(N(C)C)c3)ccc2C)c(OC)c1` it is above 50000 nM.
